According to PMC9886283, “Specific gene module pair-based target identification and drug discovery” (Frontiers in Pharmacology, 2023):
Structures can show the parent of a compound that is named as a salt. Where two headings read alike, the source gives them in different places.

What was measured:
[1] = system: N-methyl-D-aspartic acid (NMDA) receptor; conditions: uncompetitive, low-affinity, non-selective antagonist; ref Lipton, 2007; cited from earlier work
[2] = biological target: PI3Kδ (Homo sapiens, UniProt O00329); assay: PI3Kδ kinase assay (ADP-Glo-based biochemical assay)
Procedure: (§1) This study aims to determine the effect of test compounds on PI3Kα/β/δ enzyme activity using ADP-Glo-based biochemical assay (Vendor: Promega, Cat#: V9102), following the manufacturer’s instruction. […] Then, the IC50s were calculated by fitting % inhibition values and the log of compound concentrations to the hill slope with the variable slope (called the variable slope model or four-parameter dose-response curve), and the log (inhibitor) vs. response curve was built by GraphPad Prism version 7.0 (GraphPad Software). Data are presented as mean ± SEM, with n = 3 for each drug dose.

[3] = biological target: PI3Kα (Homo sapiens, UniProt P42336); assay: PI3Kα kinase assay (ADP-Glo-based biochemical assay)
Procedure: as §1

[4] = biological target: PI3Kβ (Homo sapiens, UniProt P42338); assay: PI3Kβ kinase assay (ADP-Glo-based biochemical assay); conditions: n = 3 per dose
Procedure: as §1

[5] = ADP-Glo, n = 3 per dose, read-out: IC50 PI3Kδ
[6] = ADP-Glo, n = 3 per dose, read-out: IC50 PI3Kα

PI3Kδ, sequence (O00329 whole entry): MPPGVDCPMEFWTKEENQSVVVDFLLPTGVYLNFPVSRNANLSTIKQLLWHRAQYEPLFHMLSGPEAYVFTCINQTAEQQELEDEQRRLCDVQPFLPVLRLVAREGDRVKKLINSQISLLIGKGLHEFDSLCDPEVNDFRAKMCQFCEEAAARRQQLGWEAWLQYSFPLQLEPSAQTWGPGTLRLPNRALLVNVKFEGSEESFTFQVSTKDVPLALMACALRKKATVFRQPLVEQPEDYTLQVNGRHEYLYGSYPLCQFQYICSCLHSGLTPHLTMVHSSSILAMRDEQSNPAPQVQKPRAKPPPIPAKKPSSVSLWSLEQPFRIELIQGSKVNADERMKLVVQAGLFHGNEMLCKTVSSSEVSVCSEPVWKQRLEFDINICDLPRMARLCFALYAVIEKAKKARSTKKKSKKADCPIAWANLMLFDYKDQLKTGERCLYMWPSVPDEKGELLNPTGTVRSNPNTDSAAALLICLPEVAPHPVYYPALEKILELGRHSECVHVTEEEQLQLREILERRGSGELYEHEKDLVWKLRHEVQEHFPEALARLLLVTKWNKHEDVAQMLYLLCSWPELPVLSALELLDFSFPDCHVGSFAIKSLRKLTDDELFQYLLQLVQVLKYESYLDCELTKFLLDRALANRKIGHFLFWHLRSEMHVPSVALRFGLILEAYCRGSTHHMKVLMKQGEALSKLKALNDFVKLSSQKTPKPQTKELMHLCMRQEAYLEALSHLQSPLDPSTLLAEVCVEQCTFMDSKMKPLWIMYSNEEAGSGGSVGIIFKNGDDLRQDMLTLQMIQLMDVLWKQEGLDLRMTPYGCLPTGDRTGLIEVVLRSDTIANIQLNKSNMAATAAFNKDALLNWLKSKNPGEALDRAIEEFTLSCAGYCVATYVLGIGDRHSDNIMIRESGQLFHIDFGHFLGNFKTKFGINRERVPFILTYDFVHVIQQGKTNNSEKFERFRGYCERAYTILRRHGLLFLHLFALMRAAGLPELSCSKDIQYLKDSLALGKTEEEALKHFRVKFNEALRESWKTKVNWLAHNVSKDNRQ
PI3Kδ, sequence (P27986 whole entry partner): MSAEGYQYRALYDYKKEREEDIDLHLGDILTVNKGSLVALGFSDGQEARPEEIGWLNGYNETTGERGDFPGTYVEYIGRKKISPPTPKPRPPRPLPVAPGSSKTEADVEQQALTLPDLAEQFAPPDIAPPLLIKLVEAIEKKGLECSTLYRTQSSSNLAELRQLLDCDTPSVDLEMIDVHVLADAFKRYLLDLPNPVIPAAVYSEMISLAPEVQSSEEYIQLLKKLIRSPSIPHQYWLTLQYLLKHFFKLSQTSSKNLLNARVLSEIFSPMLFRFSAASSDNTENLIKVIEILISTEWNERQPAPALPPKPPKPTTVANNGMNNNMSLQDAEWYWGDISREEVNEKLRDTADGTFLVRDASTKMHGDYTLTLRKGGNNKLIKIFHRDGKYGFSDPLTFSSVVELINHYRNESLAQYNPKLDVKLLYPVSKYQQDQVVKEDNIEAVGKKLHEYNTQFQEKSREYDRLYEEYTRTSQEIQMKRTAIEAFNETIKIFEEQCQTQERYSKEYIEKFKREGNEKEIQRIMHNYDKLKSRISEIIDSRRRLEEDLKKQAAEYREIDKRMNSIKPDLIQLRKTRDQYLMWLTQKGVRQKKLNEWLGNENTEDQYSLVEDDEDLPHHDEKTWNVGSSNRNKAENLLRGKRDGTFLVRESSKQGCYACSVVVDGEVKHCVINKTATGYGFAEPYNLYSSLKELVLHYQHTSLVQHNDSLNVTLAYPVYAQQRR
PI3Kβ, sequence (P42338 whole entry): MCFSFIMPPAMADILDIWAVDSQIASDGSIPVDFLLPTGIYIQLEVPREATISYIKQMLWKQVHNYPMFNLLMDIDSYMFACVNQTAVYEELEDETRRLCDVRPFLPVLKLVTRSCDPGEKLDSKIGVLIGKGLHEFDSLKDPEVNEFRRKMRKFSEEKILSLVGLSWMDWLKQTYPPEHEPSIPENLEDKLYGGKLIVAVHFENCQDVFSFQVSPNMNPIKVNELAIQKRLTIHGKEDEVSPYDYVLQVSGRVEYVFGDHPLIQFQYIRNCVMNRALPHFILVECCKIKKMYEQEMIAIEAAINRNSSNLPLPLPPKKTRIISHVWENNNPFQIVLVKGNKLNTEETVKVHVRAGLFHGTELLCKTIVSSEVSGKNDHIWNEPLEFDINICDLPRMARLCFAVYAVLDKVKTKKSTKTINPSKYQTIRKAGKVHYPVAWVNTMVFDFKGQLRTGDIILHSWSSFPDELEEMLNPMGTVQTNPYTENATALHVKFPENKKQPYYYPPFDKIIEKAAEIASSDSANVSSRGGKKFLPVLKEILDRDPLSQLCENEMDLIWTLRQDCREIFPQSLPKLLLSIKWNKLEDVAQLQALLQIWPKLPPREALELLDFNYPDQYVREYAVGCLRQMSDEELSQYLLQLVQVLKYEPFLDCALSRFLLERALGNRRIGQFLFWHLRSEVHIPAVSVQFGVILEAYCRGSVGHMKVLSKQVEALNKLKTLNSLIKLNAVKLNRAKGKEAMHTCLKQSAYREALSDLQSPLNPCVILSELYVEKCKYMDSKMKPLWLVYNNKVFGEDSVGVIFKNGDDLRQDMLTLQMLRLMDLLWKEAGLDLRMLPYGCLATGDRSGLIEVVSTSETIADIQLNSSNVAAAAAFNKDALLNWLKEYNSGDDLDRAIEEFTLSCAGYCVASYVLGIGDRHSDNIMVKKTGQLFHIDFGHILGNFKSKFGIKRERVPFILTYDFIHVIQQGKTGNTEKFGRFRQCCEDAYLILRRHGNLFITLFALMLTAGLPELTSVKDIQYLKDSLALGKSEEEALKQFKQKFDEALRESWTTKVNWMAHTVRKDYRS
PI3Kβ, sequence (P27986 whole entry partner): as the sequence (P27986 whole entry partner) above
PI3Kα, sequence (P42336 whole entry): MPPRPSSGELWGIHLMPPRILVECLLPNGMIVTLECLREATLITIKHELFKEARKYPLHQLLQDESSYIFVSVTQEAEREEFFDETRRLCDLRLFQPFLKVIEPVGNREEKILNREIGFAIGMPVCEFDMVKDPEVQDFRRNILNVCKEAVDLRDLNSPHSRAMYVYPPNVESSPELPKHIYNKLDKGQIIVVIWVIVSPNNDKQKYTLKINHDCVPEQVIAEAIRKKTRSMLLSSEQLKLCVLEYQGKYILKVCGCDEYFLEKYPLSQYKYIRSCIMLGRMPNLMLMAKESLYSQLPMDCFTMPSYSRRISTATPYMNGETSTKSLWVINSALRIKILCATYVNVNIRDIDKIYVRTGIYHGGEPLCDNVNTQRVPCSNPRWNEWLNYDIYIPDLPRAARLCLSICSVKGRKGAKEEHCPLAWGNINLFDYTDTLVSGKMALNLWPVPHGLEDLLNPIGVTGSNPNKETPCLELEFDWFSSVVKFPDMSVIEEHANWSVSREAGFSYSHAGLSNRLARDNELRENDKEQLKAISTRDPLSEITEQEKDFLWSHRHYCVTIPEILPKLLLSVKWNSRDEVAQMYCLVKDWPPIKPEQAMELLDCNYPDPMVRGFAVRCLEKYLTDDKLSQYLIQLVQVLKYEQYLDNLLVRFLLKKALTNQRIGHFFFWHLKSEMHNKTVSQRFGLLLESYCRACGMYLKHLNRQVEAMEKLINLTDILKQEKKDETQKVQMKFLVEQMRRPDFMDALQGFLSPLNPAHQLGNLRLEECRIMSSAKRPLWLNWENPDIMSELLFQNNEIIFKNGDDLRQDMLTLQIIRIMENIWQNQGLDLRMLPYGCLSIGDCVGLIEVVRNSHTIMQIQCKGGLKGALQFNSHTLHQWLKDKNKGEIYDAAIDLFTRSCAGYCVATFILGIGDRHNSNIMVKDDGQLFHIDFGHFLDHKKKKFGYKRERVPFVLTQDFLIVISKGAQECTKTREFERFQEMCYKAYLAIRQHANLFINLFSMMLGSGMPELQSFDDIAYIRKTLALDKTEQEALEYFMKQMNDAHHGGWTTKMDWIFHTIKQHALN
PI3Kα, sequence (P27986 whole entry partner): as the sequence (P27986 whole entry partner) above

Row | SMILES | affinity for NMDA receptor [1] | IC50 [2, 5] [µM] | IC50 [3, 6] [µM] | IC50 [4] [µM] | IC50 [2] [µM] | IC50 [3] [µM]
1 | CC12CC3CC(C)(C1)CC(N)(C3)C2 [memantine] | micromolar range |  |  |  |  | 
2 | CO[C@H]1/C=C\C=C(/C)C(=O)NC2=CC(=O)C(NCCN(C)C)=C(C[C@@H](C)C[C@H](OC)[C@H](O)[C@@H](C)/C=C(\C)[C@@H]1OC(N)=O)C2=O [alvespimycin] |  | 28 | 93 | 69 |  | 
3 | c1nc2nc(Nc3ccc(N4CCOCC4)cc3)nc(NC3CCCCC3)c2[nH]1 [reversine] |  |  |  |  | 3.5 | 12
4 | CC/C(=C(\c1ccccc1)c1ccc(OCCN(C)C)cc1)c1ccccc1 [Tamoxifen, tamoxifen] |  | 10 | 19 | 14 |  | 
5 | COc1ccc(CCN2CCC(Nc3nc4ccccc4n3Cc3ccc(F)cc3)CC2)cc1 [astemizole] |  | 6 | 18 | 8.7 |  | 
6 | O=C(c1ccc(OCCN2CCCCC2)cc1)c1c(-c2ccc(O)cc2)sc2cc(O)ccc12 [Raloxifene HCl, raloxifene HCl] |  | 4.3 | 16 | 8.4 |  | 
7 | CC(C)NCCCn1c(Sc2cc3c(cc2I)OCO3)nc2c(N)ncnc21 [PU-H71] |  | 20 |  |  |  | 
